Data reported in PubChem BioAssay (NCI).
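Protocol summary: plate cells (96-well), add compound at 5 concentrations, incubate 48 h, interpolate endpoints linearly. GI50 marks 50% less growth. TGI: total growth inhibition.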

Tests used:
Assay in all cases: growth of human tumour cells (NCI), 48 h
MALME-3M melanoma = system: MALME-3M melanoma
SF-268 CNS = system: SF-268 CNS
LOX IMVI melanoma = system: LOX IMVI melanoma
HCC-2998 colon = system: HCC-2998 colon
NCI-H522 lung = system: NCI-H522 lung
SNB-19 CNS = system: SNB-19 CNS
HOP-62 NSCLC = system: HOP-62 NSCLC
K-562 leukemia = system: K-562 leukemia
786-0 renal = system: 786-0 renal
HS 578T breast = system: HS 578T breast

Compound	GI50 (MALME-3M melanoma)	TGI (MALME-3M melanoma)	GI50 (SF-268 CNS)	TGI (SF-268 CNS)	GI50 (LOX IMVI melanoma)	TGI (LOX IMVI melanoma)	GI50 (HCC-2998 colon)	TGI (HCC-2998 colon)	GI50 (NCI-H522 lung)	TGI (NCI-H522 lung)	GI50 (SNB-19 CNS)	TGI (SNB-19 CNS)	GI50 (HOP-62 NSCLC)	TGI (HOP-62 NSCLC)	GI50 (K-562 leukemia)	TGI (K-562 leukemia)	GI50 (786-0 renal)	TGI (786-0 renal)	GI50 (HS 578T breast)	TGI (HS 578T breast)
CCN1CCN(c2nc(C)cc(N(CCNc3ccnc4cc(Cl)ccc34)Cc3ccc4c(c3)OCO4)n2)CC1	1.84 µM	3.44 µM	2.09 µM	5.81 µM	1.77 µM	3.35 µM	2.03 µM	3.96 µM	1.95 µM	4.06 µM	3 µM	10.2 µM	2.21 µM	11.5 µM	0.913 µM	2.76 µM	1.54 µM	3.08 µM		
[Cl-].[La+3].[O-]/N=C(\c1ccccc1)c1ccccn1.[O-]/N=C(\c1ccccc1)c1ccccn1.[O-]/N=C(\c1ccccc1)c1ccccn1	45.8 µM	> 100 µM	46 µM	> 100 µM	22.9 µM	> 100 µM	> 100 µM	> 100 µM	44.5 µM	> 100 µM	50.5 µM	> 100 µM	28.4 µM	> 93.9 µM	84.2 µM	> 100 µM	36 µM	> 100 µM		
O=C(Nc1ccc(Cl)cc1)c1cccc(NC2=C(Cl)C(=O)N(Cc3ccccc3)C2=O)c1			11.6 µM	30.1 µM	11.1 µM	23.2 µM	3.83 µM	20 µM	7.09 µM	29 µM	17.6 µM	45.9 µM	10.3 µM	22 µM	5.83 µM	28.3 µM	7.83 µM	20.9 µM	13.2 µM	46.3 µM
COc1ccc(S(=O)(=O)NNS(C)(=O)=O)cc1		> 100 µM		> 100 µM		> 100 µM		> 100 µM		> 100 µM		> 100 µM		> 100 µM		> 100 µM		> 100 µM		
CCN(CC)/C(SCc1ccccc1)=C(\C(Cl)=C(Cl)Cl)[N+](=O)[O-]		21.8 µM		46.6 µM		32.7 µM		47.7 µM		47.2 µM		97.5 µM		45.6 µM		> 100 µM		30.2 µM		
OC(c1nc2ccccc2[nH]1)C(O)C(O)C(O)c1nc2ccccc2[nH]1 (stereo not given)		> 100 µM		> 100 µM		> 100 µM				> 100 µM		> 100 µM		> 100 µM		> 100 µM		> 100 µM		> 100 µM
CN(C)c1nc(=Nc2ccc(N=c3nc(N(C)C)ss3)cc2)ss1		51.4 µM		99.2 µM		> 67.9 µM		> 100 µM		25.8 µM		> 100 µM		> 100 µM		30.5 µM		> 100 µM		
O=C(/C=C\c1ccc(Cl)c(Cl)c1)c1ccc(Cl)cc1Cl		35.5 µM		55.1 µM	2.05 µM	18.2 µM		58.6 µM		32.6 µM		56.2 µM	> 100 µM	> 100 µM	1.61 µM	26 µM		39.6 µM		
c1ccc(COc2cccc3ccc[n+](Cc4ccccc4)c23)cc1		19.9 µM		> 100 µM				41.4 µM		8.02 µM		> 100 µM		50.8 µM		> 100 µM		84.6 µM		
